Measured values taken from US20210276985A1, “NOVEL COMPOUNDS” (priority 2018, published 2021).

System: human Kv3.1 channels
Assay: Kv3.1 channel modulation, IonWorks Quattro planar array electrophysiology in HEK-hKv3.1 cells
Type: cell-based
Conditions: hKv3.1 HEK cells, -15 mV step
From the text: The ability of the compounds of the invention to modulate the voltage-gated potassium channel subtypes Kv3.3/Kv3.2/Kv3.1 may be determined using the following assay. Analogous methods may be used to investigate the ability of the compounds of the invention to modulate other channel subtypes.
To assess compound effects on human Kv3.1 channels (hKv3.1): Human embryonic kidney (HEK)-hKv3.1 cell line is generated by transfecting HEK-293 cells with an expression vector with human Kv3.1 (NM_004976.4). Cells are cultured with MEM supplemented with 10% Heat-Inactivated FBS, 2 mM L-glutamine, 1% Penicillin-Streptomycin, and 0.6 mg/ml of Geneticin (G418). HEK-hKv3.1b cells were amplified in T175 cm2 flask at 37° C. with 5% CO2, using MEM amplification medium, containing the G418 selection antibiotic (0.6 mg/ml). Cells were detached every 3-4 days, using DPBS to wash twice the flask, then TrypLE to dislodge the cells, and re-plated at a density of 2-4×10^6 cells/flask.
The day of the experiment, cells are removed from the incubator and the culture medium removed. […]
Experiments are conducted at r.t. using IonWorks Quattro™ planar array electrophysiology technology (Molecular Devices Corp.) with PatchPlate™ PPC. […] Planar electrode hole resistances (Rp) are determined by applying a 10 mV voltage step across each well. […]

Structure (SMILES): CC[C@@H]1NC(=O)N(c2cnc(Oc3ccc(C)c4c3C3(CC3)CO4)cn2)C1=O [Example 15, (5S)-5-ethyl-3-[5-(7-methylspiro[2H-benzofuran-3,1′-cyclopropane]-4-yl)oxypyrazin-2-yl]imidazolidine-2,4-dione]
- Kv3.1 pEC50 (EC50 = 50% of maximum increase by reference compound): 5.10
- Kv3.1 max R % (normalised to maximum effect of reference compound (50 microM)): 136%
